# Experimental data published in patent publication US20230258642A1, “COMPOSITIONS AND METHODS FOR IDENTIFICATION OF MODULATORS OF RAS PROTEIN COMPLEXES” (QUANTA THERAPEUTICS, INC., priority 2020, published 2023).
# Experiments:
# [1] = biological target: T1, Annexin V (Homo sapiens, UniProt P08758); assay: Annexin V counter-screen SHG assay on phosphatidyl serine surface; format: binding
# T1 sequence (P08758 1-320): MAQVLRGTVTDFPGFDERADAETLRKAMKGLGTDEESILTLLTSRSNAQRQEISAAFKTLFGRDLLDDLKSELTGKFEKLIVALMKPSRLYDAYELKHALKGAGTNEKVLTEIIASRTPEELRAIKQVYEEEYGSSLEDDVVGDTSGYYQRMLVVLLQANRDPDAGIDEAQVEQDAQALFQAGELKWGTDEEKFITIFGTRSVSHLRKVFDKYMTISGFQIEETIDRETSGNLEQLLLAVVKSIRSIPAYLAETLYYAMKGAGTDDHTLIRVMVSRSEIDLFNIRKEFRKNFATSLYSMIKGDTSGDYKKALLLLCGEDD
# From the text: Annexin V binds to phosphatidyl serine membrane like KRAS^G12D-FMe in a calcium-dependent manner. However, Annexin V is structurally unrelated to KRAS/RAF1 complex. Addition of EDTA, a chelation agent, results in >80% decrease in SHG signal due to loss of Annexin V protein from the phosphatidyl serine surface. […] This assay was established as a counter-screen assay to the KRAS^G12D-FMe+SH-active RAF1^RBDCRD interaction, allowing detection of false-positives due to metal chelation or non-specific protein binding.
# [2] = biological target: T2, KRAS^G12D-FMe+RAF1^RBDCRD-SHG2 complex (Homo sapiens, UniProt P01116, G12D); assay: SHG complex assay: KRAS^G12D-FMe + SH-active RAF1^RBDCRD complex tethered to a PS bilayer; format: binding; conditions: complex tethered overnight in the presence of 1 mM GDP
# T2 construct: 1; farnesyl and carboxymethyl modification (FMe) at the C-terminal Cys
# Description: Factors contributing towards maximizing the complex SHG signal compared to bilayer-tethered KRAS^G12D-FMe alone were further optimized in order to develop a robust screening assay that would allow the separation of real conformational modulators from the baseline signal noise. Accordingly, a pre-formed complex was tethered to the bilayer and the baseline SHG intensity of the complex was compared to each individual component.
# In comparison, each protein component was incubated on the PS bilayer to make sure the SHG signal generated by the complex was distinct from any signal produced by the individual components (FIG. 3B). The PS bilayer alone produced a baseline SHG signal around 6000. […]
# Since RAF1 binding to KRAS is nucleotide dependent, the SHG signal change was monitored in the presence of 10 mM EDTA and 1 mM GDP. […] The SHG response to this control reinforced that the detected complex signal behaves according to its characterized biology.
# A beam from a Ti:S femtosecond laser is used as the fundamental according to procedures known to those skilled in the art. […] Second harmonic light generated by the surface is collected, filtered from the fundamental, and detected by a photomultiplier tube (PMT) according to procedures known to those skilled in the art. A baseline signal with declining intensity due to photobleaching is recorded. […]
structure (smiles),measurement,setting,value
COc1ccc2c(c1)CN(C(=O)CCN1CCC(Cc3ccccc3)CC1)CCS2 [K201],SHG response upon addition to Annexin V,[1],dose-dependent SHG response
Nc1nc2c(ncn2[C@@H]2O[C@H](COP(=O)(O)OP(=O)(O)O)[C@@H](O)[C@H]2O)c(=O)[nH]1 [GDP],complex SHG signal,[2],no complex SHG signal was detected
O=C(O)CN(CCN(CC(=O)O)CC(=O)O)CC(=O)O [EDTA],decrease in SHG signal (loss of Annexin V from phosphatidyl serine surface),[1],> 80%
